Common to all, as to assay: relative viability (nuclei count vs DMSO), 5 days (fraction); higher = more cells survive
Compound in the assay “Tanzisertib + Pemetrexed”: O[C@H]1CC[C@H](Nc2ncc3nc(Nc4c(F)cc(F)cc4F)n([C@H]4CCOC4)c3n2)CC1 [Tanzisertib] + Nc1nc2[nH]cc(CCc3ccc(C(=O)N[C@@H](CCC(=O)O)C(=O)O)cc3)c2c(=O)[nH]1 [Pemetrexed] (partner 0.2 µM)
An outline of the steps:
(§1)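 Lung cancer cell lines were seeded in 1536-well plates and dosed by pin tool the next day, with either a single drug or a fixed anchor-drug dose combined with five library-drug doses (not always all listed) spaced in √10 steps. Five days later, one step fixed the cells and stained their nuclei (final 0.05% Triton X-100, 1% formaldehyde, 1 ug/ml Hoechst), and nuclei were counted on 4× images. Relative viability is the nuclei count in treated wells divided by the count in vehicle wells, and each value is the median of duplicate plates.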

Compound in assay [1]: C[C@@H](N)c1ccc(C(=O)Nc2ccnc3[nH]ccc23)cc1 + CC(=O)c1c(C)c2cnc(Nc3ccc(N4CCNCC4)cn3)nc2n(C2CCCC2)c1=O [Palbociclib] (partner 0.5 µM)
An outline of the steps:
as §1

Compound in assay [2]: C[C@@H](N)c1ccc(C(=O)Nc2ccnc3[nH]ccc23)cc1 + CCNC(=O)c1noc(-c2cc(C(C)C)c(O)cc2O)c1-c1ccc(CN2CCOCC2)cc1 [Luminespib] (partner 0.01 µM)
Put shortly:
as §1

Compound in assay [3]: C[C@@H](N)c1ccc(C(=O)Nc2ccnc3[nH]ccc23)cc1 + Nc1nc2[nH]cc(CCc3ccc(C(=O)N[C@@H](CCC(=O)O)C(=O)O)cc3)c2c(=O)[nH]1 [Pemetrexed] (partner 0.2 µM)
Put shortly: as §1

Regarding UMC-11, the relative viability with Tanzisertib + Pemetrexed (first compound 0.08 µM) came to 0.801; with Tanzisertib + Pemetrexed (first compound 0.253 µM), 0.793; in the assay with Tanzisertib + Pemetrexed (first compound 0.8 µM), 0.784; in the assay with Tanzisertib + Pemetrexed (first compound 2.53 µM) it was 0.816; in the assay with Tanzisertib + Pemetrexed (first compound 8 µM), 0.833; in assay [1] (first compound 0.1265 µM), 0.334. Besides, the relative viability in assay [1] (first compound 0.4 µM) was determined as 0.306; in assay [1] (first compound 1.265 µM), 0.29; in assay [1] (first compound 4 µM) it was 0.318; in assay [2] (first compound 0.04 µM) it was 1.08; in assay [2] (first compound 0.1265 µM), 1.06; in assay [2] (first compound 0.4 µM), 1.04. Further, the relative viability in assay [2] (first compound 1.265 µM) is 0.989; in assay [2] (first compound 4 µM), 0.826; in assay [3] (first compound 0.04 µM), 0.915; in assay [3] (first compound 0.1265 µM) it was 0.889; in assay [3] (first compound 0.4 µM), 0.955; in assay [3] (first compound 1.265 µM), 0.764. In assay [3] (first compound 4 µM), the relative viability was found to be 0.498.
